# Results published in US20080064665A1, “Combination approaches to cancer treatment” (priority 2006, published 2008).
# Where “and” joins values, the source holds several entries; their conditions need not be identical. Equal entries are not always repeated.
# Key:
# [1] = tested on: SiHa human cervical cancer xenograft; experiment: Growth delay and survival of SiHa xenograft, PR-104 and docetaxel; format: in vivo, Rag-1^null mice
# Description: Analysis: End-points will be expressed as TTE50, Median RTV^4 and plotted in Kaplan-Meier Plots and analysed by Log Rank P statistical test. Weight loss nadir will be compared between schedules.
# [2] = tested on: A2780 human ovarian cancer xenografts; experiment: Growth delay and survival of A2780 xenografts, PR-104 and docetaxel; format: in vivo, CD-1 nude mice; details: A2780 xenograft
# Experimental: (§1) End-point: After treatment, tumor size and body weights were measured regularly and mice were culled either when the average diameter of the tumor reached 15 mm (end-point), the tumor ulcerated or when the body weight change reached −15%. Experiment was ended and all remaining mice culled 120 days after treatment.
# (§2) Analysis: End-points will be expressed as TTE50, Median RTV^4 and plotted in Kaplan-Meier Plots and analysed by Log Rank P statistical test.
# [3] = tested on: 22RV1 androgen-resistant human prostate cancer xenograft; experiment: Growth delay and survival of 22RV1 xenograft, PR-104 and docetaxel; format: in vivo, CD-1 nude mice
# Experimental: as §1, §2
# [4] = tested on: H460 human lung cancer xenografts; experiment: Growth delay and survival of H460 xenografts, PR-104, docetaxel and schedules thereof; format: in vivo, CD-1 nude mice
# Experimental: Specific pathogen-free homozygous nu/nu (CD-1) nu/nu [NIH-III] (Charles River Laboratories, Wilmington, Mass.) were provided by the Animal Resources Unit (University of Auckland) at 7 to 9 weeks of age. Mice were housed in groups of 4-7 in a temperature-controlled room (22±2° C.) with a 12-hour light/dark cycle and were fed ad libitum water and a standard rodent diet (Harlan Teklad diet 2018i). All animals were uniquely identifiable by ear tag number. All animal protocols were approved by the Animal Ethics Committee of the University of Auckland (AEC approval C337).
# A single cell suspension was prepared by trypsinisation (1× Trypsin/EDTA) from spinner culture, counted, and suspended in ∝MEM to give required cell concentration, as listed below. Mice were inoculated (100 μL) at a single subcutaneous site (right flank) using a 1 ml syringe with a 26 gauge needle.
# Seven days post-inoculation, tumors were measured three times per week until they reached the treatment size (mean diameter 5.8-8.2 mm; average 7.0 mm). Mean tumor diameter was averaged from the longest diameter (length) multiplied by the perpendicular measurement (width). Tumor diameters were estimated when mean diameter was below 5 mm, and measured with electronic callipers when ≧5 mm.
# Tumor volume was calculated using the formula:
# where L=length and w=width in mm of the carcinoma.
# Excess compound was discarded.
# Tumor bearing mice were assigned randomly to treatment groups when tumor diameter reached treatment size. Animals were rejected if xenografts show evidence of: (i) attachment to underlying muscle (due to risk of local invasion), (ii) signs of ulceration, or (iii) indolent tumor growth. Drug administration begins on the day of assignment. In general, 0.7-0.8 of the inoculated population is assigned to the experiment. Drug administration was undertaken as outlined above.
# During and after treatment, tumor size and body weights were measured regularly. Animals were culled if (i) the average diameter of the tumor exceeds 15 mm (survival end-point), (ii) body weight loss exceeds 15% of pre-treatment value, (iii) there is evidence of prolonged or excessive morbidity, or (iv) tumor ulceration occurred. Each experiment was terminated at day 120 after treatment initiation.
# Kaplan-Meier plots were constructed and median survival was calculated (TTE50). The statistical significance of any differences in overall survival between treatment groups and control was analysed by Log Rank P statistical test. The log-rank test was calculated using XLStat Life (Kovach Computing Services Ltd). The statistic significance in overall survival between each treatment group and control was determined by testing the null hypothesis that the survival curves are identical in the two populations.
# The time for individual tumors to increase in volume by 4 fold relative to treatment day-1 (relative tumor volume×4−RTV^4) was recorded. The median RTV^4 is calculated for each group and the difference in RTV^4 between control and treatment groups is described as the Tumor Growth Delay (TGD) in days. RTV^4 values notmalise for any bias in tumor treatment volume on day-1. The RTV^4 of each treatment group is tested for statistical difference from control group by unpaired t-test and Mann Whitney U test (means and medians, respectively).
# In circumstances where long-term controls (LTCs) occur, an RTV^4 value equal to the total duration of the experiment is assigned for the purposes of statistical analysis (usually 120 days). Where one or more LTC is present the median RTV^4 of each treatment group is tested for statistical difference from control group by Mann Whitney U test only. The statistical analysis was conducted at a p level of 0.05 (two-tailed). SigmaStat v3.10 was used for the statistical analysis of RTV^4 values. SigmaPlot v9 was used for all graph plots.
# Weight loss nadirs (time independent maxima) were recorded for each treatment group.
# [5] = Rag-1 mice, PR-104 652 mg/kg, docetaxel 73 mg/kg, q2w×2
# [6] = PR-104 652 mg/kg, docetaxel 73 mg/kg, q2w×2
# [7] = 22RV1 xenograft, PR-104 652 mg/kg, docetaxel 73 mg/kg, q2w×2
# [8] = H460 xenograft, PR-104 652 mg/kg, docetaxel 73 mg/kg, q2w×2
compound,measurement,setting,value
"CC(=O)O[C@@]12CO[C@@H]1C[C@H](O)[C@@]1(C)C(=O)[C@H](O)C3=C(C)[C@@H](OC(=O)[C@H](O)[C@@H](NC(=O)OC(C)(C)C)c4ccccc4)C[C@@](O)([C@@H](OC(=O)c4ccccc4)[C@H]21)C3(C)C [Docetaxel, (2R,3S)-N-carboxy-3-phenylisoserine, N-tert-butyl ester, 13-ester with 5β-20-epoxy-1,2α,4,7β,10β,13α-hexahydroxytax-11-en-9-one 4-acetate 2-benzoate, trihydrate, reference compound]",activity against SiHa xenograft (in words),[1]; Rag-1 mice,displayed activity
same,LTC (long term control),"[1]; Rag-1 mice, 120 day experiment",0
same,Weight Loss Nadir (%),"[1]; Rag-1 mice, PR-104 652 mg/kg, docetaxel 73 mg/kg, i.p., q2w×2, trihydrate",−7.0±0.8%
same,Median RTV^4,[1]; [5],44.5 days
same,TTE50 (median time for tumor end-point to occur),[1]; [5],54 days
same,TGD (relative gain in median RTV^4 versus control),"[1]; Rag-1 mice, PR-104 652 mg/kg, docetaxel 73 mg/kg, q2w×2, trihydrate",271% and 270.8%
same,Day of death,"[1]; Rag-1 mice, day of unscheduled death, trihydrate",44 and 66
same,improvement in tumor growth delay,"[1]; Rag-1 mice, versus control",32.5 days
same,Gain TTE50 (improvement in median survival),"[1]; Rag-1 mice, versus control (17 days)",37 days
same,Unscheduled deaths,"[1]; female Rag-1 mice, total dose PR-104 652 mg/kg, docetaxel 73 mg/kg, i.p., q2w×2",2
same,Weight Loss Nadir (%),"[2]; CD-1 nude mice, PR-104 652 mg/kg, docetaxel 73 mg/kg, i.p., q2w×2, trihydrate",−8.7±1.5%
same,LTC (long term control),[2]; 120 day experiment,0
same,Median RTV^4,[2]; [6],12 days
same,TTE50,[2]; [6],14 days
same,TGD (relative gain in median RTV^4 versus control),"[2]; PR-104 652 mg/kg, docetaxel 73 mg/kg, q2w×2, trihydrate",167% and 166.7%
same,improvement in median tumor growth delay,[2]; versus control,7.5 days
same,Gain TTE50 (improvement in median survival),[2]; versus control (6 days),8 days
same,activity against 22RV1 xenograft (in words),[3]; 22RV1 prostate xenograft model,moderately active
same,Weight Loss Nadir (%),"[3]; 22RV1 xenograft, CD-1 nude mice, PR-104 652 mg/kg, docetaxel 73 mg/kg, i.p., q2w×2, trihydrate",−3.5±0.8%
same,LTC (long term control),"[3]; 22RV1 xenograft, 120 day experiment",0
same,Median RTV^4,[3]; [7],20 days
same,TGD (relative gain in median RTV^4 versus control; TGI in text),[3]; [7],122%
same,TTE50,[3]; [7],24 days
same,median tumor growth delay,"[3]; 22RV1 xenograft, versus control",11 days
same,Gain TTE50 (improvement in median survival),"[3]; 22RV1 xenograft, versus control (9.5 days)",14.5 days
same,Weight Loss Nadir (%),"[4]; H460 xenograft, CD-1 nude mice, mean body weight loss nadir, PR-104 652 mg/kg, docetaxel 73 mg/kg, i.p., q2w×2, trihydrate",−4.2 ± 1.0%
same,Unscheduled deaths,"[4]; H460 xenograft, female CD-1 nude mice, total dose PR-104 652 mg/kg, docetaxel 73 mg/kg, i.p., q2w×2",0
same,"LTC (long term control, failed to reach end-point within duration of experiment)","[4]; H460 xenograft, 120 day experiment, PR-104 652 mg/kg, docetaxel 73 mg/kg, q2w×2",0
same,Median RTV^4 (median time for tumor volume to increase 4-fold),[4]; [8],8 days
same,TGD (tumor growth delay; relative gain in median RTV^4 versus control),[4]; [8],0%
same,TTE50 (median time for tumor end-point to occur from day of treatment),"[4]; H460 xenograft, end-point >15 mm mean diameter, PR-104 652 mg/kg, docetaxel 73 mg/kg, q2w×2",14 days
same,Gain TTE50 (improvement in median survival),"[4]; H460 xenograft, versus control (11 days), PR-104 652 mg/kg, docetaxel 73 mg/kg, q2w×2",3 days
same,activity against H460 xenograft (in words),[4]; tumor growth delay and survival end-points,refractory
